Source: patent US9598387B2 (Southern Research Institute, priority 2012, dated 2017)

Columns and labels:
[1] = target: human D3 dopamine receptor (Homo sapiens (Human), UniProt P35462); assay: Radioligand binding (125I-IABN competition), D3; conditions: for Ki: 125I-IABN competition, HEK cell membranes expressing human D3; for D2/D3 (D3 selectivity ratio, D2 Ki/D3 Ki): calculated D2 Ki/D3 Ki
Method: (§1) The affinities of the target compounds were determined using radioligand binding experiments. […] Competition curves were modeled for a single site. Data from competition dose-response curves were analyzed using Tablecurve program (Jandel). IC50 values were converted to equilibrium dissociation constants (Ki values) using the Cheng and Prusoff correction.

[2] = target: human D2-long dopamine receptor (Homo sapiens (Human), UniProt P14416); assay: Radioligand binding (125I-IABN competition), D2; conditions: HEK cell membranes expressing human D2-long
Method: as §1

Chain of human D3 dopamine receptor (P35462 whole entry): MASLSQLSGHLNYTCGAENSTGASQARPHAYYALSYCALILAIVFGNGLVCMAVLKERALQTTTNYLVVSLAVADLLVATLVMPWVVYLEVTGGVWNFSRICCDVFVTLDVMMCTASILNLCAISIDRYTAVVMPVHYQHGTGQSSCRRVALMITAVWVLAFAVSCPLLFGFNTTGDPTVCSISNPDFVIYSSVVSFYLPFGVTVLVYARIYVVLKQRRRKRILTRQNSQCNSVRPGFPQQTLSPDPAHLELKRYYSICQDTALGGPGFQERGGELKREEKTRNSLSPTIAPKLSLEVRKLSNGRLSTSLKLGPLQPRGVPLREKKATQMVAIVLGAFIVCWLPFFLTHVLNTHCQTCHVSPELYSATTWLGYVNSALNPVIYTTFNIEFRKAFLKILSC
Chain of human D2-long dopamine receptor (P14416 whole entry): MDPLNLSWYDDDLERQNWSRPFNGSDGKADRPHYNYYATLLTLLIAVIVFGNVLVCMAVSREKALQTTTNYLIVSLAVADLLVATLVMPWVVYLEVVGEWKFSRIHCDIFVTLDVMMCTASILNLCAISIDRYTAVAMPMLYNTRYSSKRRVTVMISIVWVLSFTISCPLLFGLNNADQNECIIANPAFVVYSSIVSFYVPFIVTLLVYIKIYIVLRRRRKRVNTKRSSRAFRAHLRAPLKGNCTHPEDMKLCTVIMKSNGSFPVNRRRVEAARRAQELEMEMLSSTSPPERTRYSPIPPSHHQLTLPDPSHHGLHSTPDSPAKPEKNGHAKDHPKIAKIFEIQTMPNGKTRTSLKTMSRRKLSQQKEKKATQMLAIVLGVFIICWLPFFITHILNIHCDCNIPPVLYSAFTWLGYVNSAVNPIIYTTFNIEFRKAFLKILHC

Ki [1] [nM]	D2/D3 (D3 selectivity ratio, D2 Ki/D3 Ki) [1]	Ki [2] [nM]	SMILES
46.6 ± 9.1	12	570 ± 119	CC(C)(C)c1nc(N2CCN(CCCCNC(=O)N3CCN(c4ccc(Cl)c(Cl)c4)CC3)CC2)cc(C(F)(F)F)n1 [Compound 60, N-(4-(4-(2-(tert-Butyl)-6-(trifluoromethyl)pyrimidin-4-yl)piperazin-1-yl)butyl)-4-(3,4-dichlorophenyl)piperazine-1-carboxamide]
9.8 ± 2	17	167 ± 25.5	CN1CCN(C(=O)NCCCCN2CCN(c3cc(C(F)(F)F)nc(C(C)(C)C)n3)CC2)CC1 [Compound 64, N-(4-(4-(2-(tert-Butyl)-6-(trifluoromethyl)pyrimidin-4-yl)piperazin-1-yl)butyl)-4-methylpiperazine-1-carboxamide]
8.6 ± 1.1	15	128 ± 25.8	CCN1CCN(C(=O)NCCCCN2CCN(c3cc(C(F)(F)F)nc(C(C)(C)C)n3)CC2)CC1 [Compound 65, N-(4-(4-(2-(tert-Butyl)-6-(trifluoromethyl)pyrimidin-4-yl)piperazin-1-yl)butyl)-4-ethylpiperazine-1-carboxamide]
9.6 ± 2.2	13	125 ± 25.3	CC(C)N1CCN(C(=O)NCCCCN2CCN(c3cc(C(F)(F)F)nc(C(C)(C)C)n3)CC2)CC1 [Compound 66, N-(4-(4-(2-(tert-Butyl)-6-(trifluoromethyl)pyrimidin-4-yl)piperazin-1-yl)butyl)-4-isopropylpiperazine-1-carboxamide]
130 ± 13	8	990 ± 192	CC(C)(C)c1nc(N2CCN(CCCCNC(=O)N3CCN(C(c4ccccc4)c4ccc(Cl)cc4)CC3)CC2)cc(C(F)(F)F)n1 (stereo not drawn) [Compound 73, N-(4-(4-(2-(tert-Butyl)-6-(trifluoromethyl)pyrimidin-4-yl)piperazin-1-yl)butyl)-4-((4-chlorophenyl)(phenyl)methyl)piperazine-1-carboxamide]
66.8 ± 16.3	9	585 ± 72.7	CC(C)(C)c1nc(N2CCN(CCCCNC(=O)N3CCN(CC=Cc4ccccc4)CC3)CC2)cc(C(F)(F)F)n1 [Compound 74, N-(4-(4-(2-(tert-Butyl)-6-(trifluoromethyl)pyrimidin-4-yl)piperazin-1-yl)butyl)-4-cinnamylpiperazine-1-carboxamide]
138 ± 28.8	7	981 ± 73.9	CC(C)(C)c1nc(N2CCN(CCCCNC(=O)N3CCN(S(=O)(=O)c4ccccc4)CC3)CC2)cc(C(F)(F)F)n1 [Compound 77, N-(4-(4-(2-(tert-Butyl)-6-(trifluoromethyl)pyrimidin-4-yl)piperazin-1-yl)butyl)-4-(phenylsulfonyl)piperazine-1-carboxamide]
29 ± 4.8	15	448 ± 75.9	CC(C)(C)c1cc(N2CCN(CCCCNC(=O)N3CCN(S(=O)(=O)c4ccccc4)CC3)CC2)nc(C(C)(C)C)n1 [Compound 78, N-(4-(4-(2,6-Di-tert-butylpyrimidin-4-yl)piperazin-1-yl)butyl)-4-(phenylsulfonyl)piperazine-1-carboxamide]
44.2 ± 8.2	11	507 ± 16.6	CC(C)(C)c1nc(N2CCN(CCCCNC(=O)N3CCCN(c4ccccc4)CC3)CC2)cc(C(F)(F)F)n1 [Compound 81, N-(4-(4-(2-(tert-Butyl)-6-(trifluoromethyl)pyrimidin-4-yl)piperazin-1-yl)butyl)-4-phenyl-1,4-diazepane-1-carboxamide]
129 ± 21.9	5	668 ± 135	CC(C)(C)c1nc(N2CCN(CCCCNC(=O)N3CCCC(c4ccccc4)CC3)CC2)cc(C(F)(F)F)n1 (stereo not drawn) [Compound 82, N-(4-(4-(2-(tert-Butyl)-6-(trifluoromethyl)pyrimidin-4-yl)piperazin-1-yl)butyl)-4-phenylazepane-1-carboxamide]

Further lines, the compound ahead of its results:

SMILES	Ki [1] [nM]	D2/D3 (D3 selectivity ratio, D2 Ki/D3 Ki) [1]	Ki [2] [nM]
CC(C)(C)c1nc(N2CCN(CCCCNC(=O)N3CCN(c4cc(C#N)cc(C(F)(F)F)c4)CC3)CC2)cc(C(F)(F)F)n1 [Compound 61, N-(4-(4-(2-(tert-Butyl)-6-(trifluoromethyl)pyrimidin-4-yl)piperazin-1-yl)butyl)-4-(3-cyano-5-(trifluoromethyl)phenyl)piperazine-1-carboxamide]	48 ± 10.8	19	896 ± 193
CC(C)(C)c1nc(N2CCN(CCCCNC(=O)N3CCN(c4cc(C(F)(F)F)nc(C(C)(C)C)n4)CC3)CC2)cc(C(F)(F)F)n1 [Compound 62, 4-(2-(tert-Butyl)-6-(trifluoromethyl)pyrimidin-4-yl)-N-(4-(4-(2-(tert-butyl)-6-(trifluoromethyl)pyrimidin-4-yl)piperazin-1-yl)butyl)piperazine-1-carboxamide]	106 ± 5.5	14	1520 ± 344
CC(C)(C)c1nc(N2CCN(CCCCNC(=O)N3CCN(c4ccnc5cc(Cl)ccc45)CC3)CC2)cc(C(F)(F)F)n1 [Compound 63, N-(4-(4-(2-(tert-Butyl)-6-(trifluoromethyl)pyrimidin-4-yl)piperazin-1-yl)butyl)-4-(7-chloroquinolin-4-yl)piperazine-1-carboxamide]	19.2 ± 3.6	19	359 ± 45.8
CC(C)(C)c1nc(N2CCN(CCCCNC(=O)N3CCN(C4CC4)CC3Cc3ccccc3)CC2)cc(C(F)(F)F)n1 (stereo not drawn) [Compound 67, 2-Benzyl-N-(4-(4-(2-(tert-butyl)-6-(trifluoromethyl)pyrimidin-4-yl)piperazin-1-yl)butyl)-4-cyclopropylpiperazine-1-carboxamide]	73.8 ± 17.5	8	626 ± 143
CC(C)(C)c1nc(N2CCN(CCCCNC(=O)N3CCN(CC4CC4)CC3)CC2)cc(C(F)(F)F)n1 [Compound 68, N-(4-(4-(2-(tert-Butyl)-6-(trifluoromethyl)pyrimidin-4-yl)piperazin-1-yl)butyl)-4-(cyclopropylmethyl)piperazine-1-carboxamide]	13.8 ± 2.4	13	184 ± 46.6
CC(C)(C)c1nc(N2CCN(CCCCNC(=O)N3CCN(C4CCCCC4)CC3)CC2)cc(C(F)(F)F)n1 [Compound 69, N-(4-(4-(2-(tert-Butyl)-6-(trifluoromethyl)pyrimidin-4-yl)piperazin-1-yl)butyl)-4-cyclohexylpiperazine-1-carboxamide]	29.8 ± 3.8	7	215 ± 54.1
CC(C)(C)c1nc(N2CCN(CCCCNC(=O)N3CCCc4ccccc43)CC2)cc(C(F)(F)F)n1 [Compound 70, N-(4-(4-(2-(tert-Butyl)-6-(trifluoromethyl)pyrimidin-4-yl)piperazin-1-yl)butyl)-3,4-dihydroquinoline-1(2H)-carboxamide]	33.5 ± 8	6	215 ± 36.3
CC(C)(C)c1nc(N2CCN(CCCCNC(=O)N3CCc4ccccc43)CC2)cc(C(F)(F)F)n1 [Compound 71, N-(4-(4-(2-(tert-Butyl)-6-(trifluoromethyl)pyrimidin-4-yl)piperazin-1-yl)butyl)indoline-1-carboxamide]	27.4 ± 3.8	10	281 ± 46.5
CC(C)(C)c1nc(N2CCN(CCCCNC(=O)N3CCN(Cc4cccc(C#N)c4)CC3)CC2)cc(C(F)(F)F)n1 [Compound 72, N-(4-(4-(2-(tert-Butyl)-6-(trifluoromethyl)pyrimidin-4-yl)piperazin-1-yl)butyl)-4-(3-cyanobenzyl)piperazine-1-carboxamide]	84.2 ± 20.3	10	820 ± 178
CC(C)(C)c1nc(N2CCN(CCCCNC(=O)N3CCC(N4CCCCC4)CC3)CC2)cc(C(F)(F)F)n1 [Compound 75, N-(4-(4-(2-(tert-Butyl)-6-(trifluoromethyl)pyrimidin-4-yl)piperazin-1-yl)butyl)-[1,4′-bipiperidine]-1′-carboxamide]	9.9 ± 1.7	6	59.3 ± 7.5
CN1CCC(N2CCN(C(=O)NCCCCN3CCN(c4cc(C(F)(F)F)nc(C(C)(C)C)n4)CC3)CC2)CC1 [Compound 76, N-(4-(4-(2-(tert-Butyl)-6-(trifluoromethyl)pyrimidin-4-yl)piperazin-1-yl)butyl)-4-(1-methylpiperidin-4-yl)piperazine-1-carboxamide]	18 ± 3	7	125 ± 26.6
CC(C)(C)c1nc(N2CCN(CCCCNC(=O)N3CCC(O)(c4ccc(Cl)cc4)CC3)CC2)cc(C(F)(F)F)n1 [Compound 79, N-(4-(4-(2-(tert-Butyl)-6-(trifluoromethyl)pyrimidin-4-yl)piperazin-1-yl)butyl)-4-(4-chlorophenyl)-4-hydroxypiperidine-1-carboxamide]	51.8 ± 11.4	16	834 ± 133
CC(C)(C)c1nc(N2CCN(CCCCNC(=O)N3CCN(C4CC4)CC3c3ccccc3)CC2)cc(C(F)(F)F)n1 (stereo not drawn) [Compound 80, N-(4-(4-(2-(tert-Butyl)-6-(trifluoromethyl)pyrimidin-4-yl)piperazin-1-yl)butyl)-4-cyclopropyl-2-phenylpiperazine-1-carboxamide]	118 ± 20.1	7	863 ± 135
O=C(NCCCCN1CCN(c2ccnc3cc(C(F)(F)F)ccc23)CC1)N1CCN(c2ccccc2)CC1 [Compound 83, 4-Phenyl-N-(4-(4-(7-(trifluoromethyl)quinolin-4-yl)piperazin-1-yl)butyl)piperazine-1-carboxamide]	112 ± 19.1	14	1550 ± 349
O=C(NCCCCN1CCN(c2ccc3ccccc3n2)CC1)N1CCN(c2ccccc2)CC1 [Compound 84, 4-Phenyl-N-(4-(4-(quinolin-2-yl)piperazin-1-yl)butyl)piperazine-1-carboxamide]	95.7 ± 14.6	27	2610 ± 79.1
